{
  "source": "patent US20240245639A1",
  "about": "“Dermal Application of Retinoic Acid Receptor Agonists for Amelioration of Hypertrophic Scar” (Northwestern University, priority 2023, published 2024)",
  "format_in_all_cases": "cell-based",
  "key": {"[1]": {"test_system": "primary human keloid fibroblasts", "experiment": "Collagen I deposition in keloid fibroblasts (Western blot, immunofluorescence)", "conditions": "keloid fibroblasts, ATRA, data not shown", "experimental": "(§1) Since overproduction of collagen is characteristic of fibroblasts in tissue fibrosis, including hypertrophic scar and keloid, we wished to determine whether Ch55 also affects deposition of collagen I by these fibroblasts.\n(§2) Cells cultured on glass coverslips were fixed in 4% paraformaldehyde for 30 minutes at room temperature. Cells were blocked in 10% normal goat serum and incubated overnight at 4° C. in solutions of the following primary antibodies: Rabbit monoclonal α-human α-SMA (1:500 dilution, catalog #192455, Cell Signaling Technology, Danvers M A) or mouse α-human COL1A1 (1:1000 dilution, catalog #M-38c, DSHB, Iowa City, IA). The following day, cells were incubated in 1:200 diluted solutions of goat-α-rabbit IgG or donkey-α-mouse IgG Alexafluor 488-conjugated secondary antibodies (A11034 or A21202, Invitrogen) containing Alexafluor 568-conjugated phalloidin (A12380, Invitrogen) for 2 hours in the dark at room temperature, before a 20 minute counterstain in 500 ng/mL DAPI. […]\n(§3) Harvested scar tissues were incubated in 0.5M ammonium thiocyanate for 20 minutes, followed by mechanical separation of dermis and epidermis using a dissecting microscope. […] Protein concentrations of cell culture and tissue samples were determined using a DC protein assay (BioRad). […]"}, "[2]": {"test_system": "primary human HTS fibroblasts", "experiment": "Collagen I deposition in hypertrophic scar fibroblasts (Western blot, immunofluorescence)", "conditions": "HTS fibroblasts, ATRA, data not shown", "experimental": "as §1, §2, §3"}, "[3]": {"test_system": "primary human foreskin fibroblasts", "experiment": "Antagonism of fibroblast activation in presence or absence of TGF-β1 (qRT-PCR, Western blot, immunofluorescence)", "conditions": "10,000 nM ATRA, ± 10 ng/mL TGF-β1, 48 hours", "experimental": "RAR Agonist all-Trans Retinoic Acid Antagonizes Myofibroblast Activation We then wished to see whether another RAR agonist could antagonize myofibroblast activation.\nCells cultured on glass coverslips were fixed in 4% paraformaldehyde for 30 minutes at room temperature. Cells were blocked in 10% normal goat serum and incubated overnight at 4° C. in solutions of the following primary antibodies: Rabbit monoclonal α-human α-SMA (1:500 dilution, catalog #192455, Cell Signaling Technology, Danvers M A) or mouse α-human COL1A1 (1:1000 dilution, catalog #M-38c, DSHB, Iowa City, IA). The following day, cells were incubated in 1:200 diluted solutions of goat-α-rabbit IgG or donkey-α-mouse IgG Alexafluor 488-conjugated secondary antibodies (A11034 or A21202, Invitrogen) containing Alexafluor 568-conjugated phalloidin (A12380, Invitrogen) for 2 hours in the dark at room temperature, before a 20 minute counterstain in 500 ng/mL DAPI. Coverslips were mounted onto slides in the dark using Fluoro Gel with DABCO (Electron Microscopy Sciences, Hatfield, PA) and imaged on an EVOS-FL imaging system (ThermoFisher).\nHarvested scar tissues were incubated in 0.5M ammonium thiocyanate for 20 minutes, followed by mechanical separation of dermis and epidermis using a dissecting microscope. Isolated dermal tissues were minced with a razor blade, submerged in RIPA buffer, and homogenized in the presence of 2 mm zirconia beads using a MagNA Lyser (Roche, Basel, Switzerland). Alternatively, cell culture samples were detached from the culture surface by trypsinization, collected by centrifugation, and lysed in RIPA buffer. Protein concentrations of cell culture and tissue samples were determined using a DC protein assay (BioRad). Five micrograms of total protein were loaded onto polyacrylamide gels and subjected to SDS-PAGE before transfer to nitrocellulose membranes, blocking with 5% dry milk in TBS-T, and probing with target-specific primary antibodies overnight. Species-specific secondary antibody solutions were added to membranes, and chemiluminescent signal was developed with Amersham ECL Western blotting detection reagent using X-ray film.\nPrimary antibodies used were rabbit anti-α-SMA (1:1000, 19245S, Cell Signaling Technology), rabbit anti-collagen I (1:1000, ab34710, Abcam), mouse anti-collagen I (1:1000, C2456, Sigma-Aldrich), and mouse anti-GAPDH (1:5000, MA5-15738, Invitrogen). Secondary antibodies utilized were HRP goat anti-rabbit IgG(H+L) and horse anti-mouse IgG(H+L) (Vector Laboratories, Newark, CA), both used at 1:5000."}, "[4]": {"test_system": "primary human foreskin fibroblasts", "experiment": "In vitro single-concentration screen of predicted compounds (brightfield, qRT-PCR)", "experimental": "In order to initially test the identified drugs, we applied each drug or DMSO vehicle control at a single concentration to primary human foreskin fibroblasts in vitro for 24 hours, before harvesting and measuring relative expression of selected myofibroblast marker genes by qRT-PCR. […] None of the drugs tested appeared to affect expression of TGFB1 (the gene encoding transforming growth factor-beta 1) at the examined concentrations.\nMATERIALS AND METHODS Materials Emetine dihydrochloride hydrate, homoharringtonine, Ch55 and panobinostat were acquired from Fisher Scientific (Waltham, MA). AZD-7762 was acquired from Selleck Chemicals (Houston, TX). For in vitro work, emetine dihydrochloride hydrate was dissolved in sterile H2O at 50 mM. Homoharringtonine was dissolved in DMSO at 10 mg/mL. Panobinostat was dissolved in DMSO at 425 μM. […] AZD-7762 was dissolved in DMSO at 500 μM. Recombinant human TGF-β1 (Sigma-Aldrich) was dissolved in sterile H2O at 50 µg/mL. All-trans-retinoic acid (Thermo Scientific) was dissolved in DMSO at 10 mM."}, "[5]": {"conditions": "single concentration, 24 hours, vs vehicle"}},
  "note": "Where two headings read alike, the source gives them in different places.",
  "data": [
    {"compound": "CC1=C(/C=C/C(C)=C/C=C/C(C)=C/C(=O)O)C(C)(C)CCC1", "note": "[ATRA, all-trans retinoic acid]", "values": [
      {"measurement": "expression of collagen I", "setting": "[1]", "value": "dramatically decreased"},
      {"measurement": "expression of collagen I", "setting": "[2]", "value": "dramatically decreased"},
      {"measurement": "F-actin stress fiber formation", "setting": "[3]", "value": "substantially decreased"},
      {"measurement": "collagen I protein (Western blot, immunofluorescence)", "setting": "[3]", "value": "substantially decreased"},
      {"measurement": "α-SMA protein (Western blot, immunofluorescence)", "setting": "[3]", "value": "substantially decreased"}
    ]},
    {"compound": "NC(=O)Nc1cc(-c2cccc(F)c2)sc1C(=O)N[C@H]1CCCNC1", "note": "[AZD-7762]", "values": [
      {"measurement": "downregulation of myofibroblast-associated genes", "setting": "[4]; single concentration, 24 hours", "value": "neither did it appear to downregulate"},
      {"measurement": "myofibroblast activation", "setting": "[4]; single concentration, 24 hours", "value": "did not show a similar effect of fibroblast activation"}
    ]},
    {"compound": "CC[C@H]1CN2CCc3cc(OC)c(OC)cc3[C@@H]2C[C@@H]1C[C@H]1NCCc2cc(OC)c(OC)cc21", "note": "[emetine]", "values": [
      {"measurement": "detachment of cells from the tissue culture plate", "setting": "[4]; single concentration, 24 hours", "value": "notable detachment of cells"},
      {"measurement": "myofibroblast activation", "setting": "[4]; single concentration, 24 hours", "value": "induced myofibroblast activation"},
      {"measurement": "CCN2 expression (qRT-PCR)", "setting": "[4]; [5]", "value": "increased expression"},
      {"measurement": "MMP1 expression (qRT-PCR)", "setting": "[4]; [5]", "value": "decreased expression"},
      {"measurement": "SERPINE1 expression (qRT-PCR)", "setting": "[4]; [5]", "value": "increased expression"}
    ]},
    {"compound": "COC(=O)C[C@](O)(CCCC(C)(C)O)C(=O)O[C@@H]1C(OC)=C[C@]23CCCN2CCc2cc4c(cc2[C@H]13)OCO4", "note": "[homoharringtonine]", "values": [
      {"measurement": "detachment of cells from the tissue culture plate", "setting": "[4]", "value": "notable detachment of cells"}
    ]}
  ]
}
